{"source": "patent US7135466B2", "about": "(Kirin Beer Kabushiki Kaisha, priority 1999, dated 2006)", "data": [{"target": "T1, c-kit (Homo sapiens, UniProt P10721)", "T1 construct": "MO7e (human megakaryocytic leukemia cell line) which had been arrested for 20 hr; endogenous in cells; host or cells: MO7e human megakaryocytic leukemia cell line", "T1 sequence (P10721 26-976)": "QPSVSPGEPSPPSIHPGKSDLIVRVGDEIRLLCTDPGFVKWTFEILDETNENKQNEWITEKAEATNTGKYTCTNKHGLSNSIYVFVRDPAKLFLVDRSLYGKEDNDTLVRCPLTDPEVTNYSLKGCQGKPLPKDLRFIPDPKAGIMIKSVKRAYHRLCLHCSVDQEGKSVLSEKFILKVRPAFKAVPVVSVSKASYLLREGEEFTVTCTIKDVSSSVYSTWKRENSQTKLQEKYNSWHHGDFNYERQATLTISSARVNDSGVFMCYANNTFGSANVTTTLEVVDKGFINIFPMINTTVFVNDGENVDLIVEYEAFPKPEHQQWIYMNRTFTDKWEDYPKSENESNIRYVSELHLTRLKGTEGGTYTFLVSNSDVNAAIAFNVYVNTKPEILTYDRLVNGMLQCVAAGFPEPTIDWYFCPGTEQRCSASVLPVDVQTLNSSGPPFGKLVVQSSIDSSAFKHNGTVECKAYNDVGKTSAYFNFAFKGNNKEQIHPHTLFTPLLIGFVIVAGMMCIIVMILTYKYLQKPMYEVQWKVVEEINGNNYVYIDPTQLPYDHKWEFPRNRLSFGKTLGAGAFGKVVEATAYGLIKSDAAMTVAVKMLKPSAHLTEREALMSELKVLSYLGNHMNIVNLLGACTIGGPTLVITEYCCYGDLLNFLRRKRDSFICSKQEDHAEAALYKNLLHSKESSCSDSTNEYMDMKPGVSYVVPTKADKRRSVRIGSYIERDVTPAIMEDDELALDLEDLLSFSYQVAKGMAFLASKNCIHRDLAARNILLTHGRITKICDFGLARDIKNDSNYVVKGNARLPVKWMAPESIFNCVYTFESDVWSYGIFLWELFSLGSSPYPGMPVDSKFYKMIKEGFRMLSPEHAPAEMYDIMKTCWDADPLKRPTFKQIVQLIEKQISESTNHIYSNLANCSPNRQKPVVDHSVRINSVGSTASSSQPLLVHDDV", "assay": "Inhibitory activity against c-kit autophosphorylation (MO7e cells, h-SCF)", "type": "cell-based", "conditions": "MO7e cells, 50 ng/ml h-SCF; read-out: c-kit IC50", "how_it_was_run": "(§1)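 Ligand-induced c-kit tyrosine phosphorylation is measured in MO7e cells that were quiesced 20 hr and preincubated with compound for 1 hr prior to a 5 min pulse of 50 ng/ml human SCF. Phospho-c-kit is detected by anti-phosphotyrosine capture ELISA, A450.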", "units": {"IC50": "µM"}, "values": [{"smiles": "COc1cc2nccc(Oc3ccc(OCCNc4ccc(C)cc4)cc3)c2cc1OC", "note": "[Example 787, N-(2-{4-[(6,7-Dimethoxy-4-quinolyl)oxy]phenoxy}ethyl)-N-(4-methylphenyl)amine]", "IC50": 0.037}, {"smiles": "COc1cc2nccc(Oc3ccc(OCC(=O)Nc4ccc(Cl)cc4)cc3)c2cc1OC", "note": "[Example 789, N1-(4-Chlorophenyl)-2-{4-[(6,7-dimethoxy-4-quinolyl)oxy]phenoxy}acetamide]", "IC50": 0.154}, {"smiles": "COc1cccc(NC(=O)COc2ccc(Oc3ccnc4cc(OC)c(OC)cc34)cc2)c1", "note": "[Example 778, N1-(3-Methoxyphenyl)-2-{4-[(6,7-dimethoxy-4-quinolyl)oxy]phenoxy}acetamide]", "IC50": 0.084}]}, {"target": "T1, c-kit", "assay": "Inhibitory activity against c-kit autophosphorylation (MO7e cells, h-SCF)", "type": "cell-based", "conditions": "MO7e cells, h-SCF 50 ng/ml; read-out: c-kit IC50", "how_it_was_run": "as §1", "units": {"IC50": "µM"}, "values": [{"smiles": "COc1cc2nccc(Oc3cc(C)c(NC(=O)Oc4ccccc4)cc3C)c2cc1OC", "note": "[Example 224, Phenyl N-{4-[(6,7-dimethoxy-4-quinolyl)oxy]-2,5-dimethylphenyl}carbamate]", "IC50": 0.147}, {"smiles": "COc1cc2ncnc(Oc3ccc(NC(=O)OCc4ccccc4)cc3)c2cc1OC", "note": "[Example 220, Benzyl N-{4-[(6,7-dimethoxy-4-quinazolinyl)oxy]phenyl}carbamate]", "IC50": 0.077}]}, {"target": "T1, c-kit", "assay": "Inhibitory activity against c-kit autophosphorylation (MO7e cells, h-SCF)", "type": "cell-based", "conditions": "MO7e cells, h-SCF stimulation; read-out: c-kit IC50", "how_it_was_run": "as §1", "units": {"IC50": "µM"}, "values": [{"smiles": "COc1cc2nccc(Oc3ccc(NC(=S)NC(=O)c4cccc(C(F)(F)F)c4)cc3Cl)c2cc1OC", "note": "[Example 951, N-{3-Chloro-4-[(6,7-dimethoxy-4-quinolyl)oxy]phenyl}-N′-[3-(trifluoromethyl)benzoyl]-thiourea]", "IC50": 0.124}, {"smiles": "COc1cc2nccc(Oc3ccc(NC(=S)NC(=O)c4ccc(C)cc4)cc3F)c2cc1OC", "note": "[Example 970, N-{4-[(6,7-Dimethoxy-4-quinolyl)oxy]-3-fluorophenyl}-N′-(4-methylbenzoyl)thiourea]", "IC50": 0.3}, {"smiles": "COc1cc2nccc(Oc3ccc(NCCOc4ccc(Cl)cc4Cl)cc3)c2cc1OC", "note": "[Example 851, N-[2-(2,4-Dichlorophenoxy)ethyl]-N-{4-[(6,7-dimethoxy-4-quinolyl)oxy]phenyl}amine]", "IC50": 0.075}, {"smiles": "COc1cc2nccc(Oc3ccc(NC(=S)NC(=O)c4ccc(F)cc4F)c(F)c3)c2cc1OC", "note": "[Example 1121, N-(2,4-Difluorobenzoyl)-N′-{4-[(6,7-dimethoxy-4-quinolyl)oxy]-2-fluorophenyl}thiourea]", "IC50": "< 0.03"}, {"smiles": "COc1cc2ncnc(Oc3ccc(SCCOc4cccc(C)c4)cc3)c2cc1OC", "note": "[Example 850, 6,7-Dimethoxy-4-(4-{[2-(3-methylphenoxy)ethyl]sulfanyl}phenoxy)quinazoline]", "IC50": 0.278}, {"smiles": "COc1cc2nccc(Oc3ccc(NCCOc4cccc(Cl)c4)cc3)c2cc1OC", "note": "[Example 860, N-[2-(3-Chlorophenoxy)ethyl]-N-{4-[(6,7-dimethoxy-4-quinolyl)oxy]phenyl}amine]", "IC50": 0.075}, {"smiles": "COc1cc2nccc(Oc3ccc(NC(=S)NC(=O)c4ccc(F)cc4)cc3)c2cc1OC", "note": "[Example 961, N-{4-[(6,7-Dimethoxy-4-quinolyl)oxy]phenyl}-N′-(4-fluorobenzoyl)thiourea]", "IC50": 0.74}, {"smiles": "COc1cc2nccc(Oc3ccc(NC(=S)NC(=O)C4CCCCC4)c(F)c3)c2cc1OC", "note": "[Example 1064, N-Cyclohexylcarbonyl-N′-{4-[(6,7-dimethoxy-4-quinolyl)oxy]-2-fluorophenyl}thiourea]", "IC50": 0.279}, {"smiles": "COc1cc2nccc(Oc3ccc(SCCOc4cccc(C)c4)cc3)c2cc1OC", "note": "[Example 823, 6,7-Dimethoxy-4-(4-{[2-(3-methylphenoxy)ethyl]sulfanyl}phenoxy)quinoline]", "IC50": 0.236}, {"smiles": "COc1cc2nccc(Oc3ccc(NC(=S)NC(=O)c4ccc(Cl)cc4)cc3)c2cc1OC", "note": "[Example 960, N-(4-Chlorobenzoyl)-N′-{4-[(6,7-dimethoxy-4-quinolyl)oxy]phenyl}thiourea]", "IC50": 0.629}, {"smiles": "COc1cc2nccc(Oc3ccc(NC(=S)NC(=O)c4ccc([N+](=O)[O-])cc4)cc3C)c2cc1OC", "note": "[Example 1108, N-{4-[(6,7-Dimethoxy-4-quinolyl)oxy]-3-methylphenyl}-N′-(4-nitrobenzoyl)thiourea]", "IC50": 0.962}, {"smiles": "COc1cc2ncnc(Oc3ccc(SCCCCOc4ccccc4F)cc3)c2cc1OC", "note": "[Example 848, 4-(4-{[4-(2-Fluorophenoxy)butyl]sulfanyl}phenoxy)-6,7-dimethoxyquinazoline]", "IC50": 0.943}, {"smiles": "COc1cc2nccc(Oc3ccc(NC(=S)NC(=O)N(C)c4ccccc4)cc3Cl)c2cc1OC", "note": "[Example 1053, N-{3-Chloro-4-[(6,7-dimethoxy-4-quinolyl)oxy]phenyl}-{[(methylanilino)carbonyl]amino}methanethioamide]", "IC50": 0.178}, {"smiles": "COc1cc2nccc(Oc3ccc(NC(=S)NC(=O)c4cccc(Br)c4)cc3Cl)c2cc1OC", "note": "[Example 952, N-(3-Bromobenzoyl)-N′-{3-chloro-4-[(6,7-dimethoxy-4-quinolyl)oxy]phenyl}thiourea]", "IC50": 0.317}, {"smiles": "COc1cc2nccc(Oc3ccc(NC(=S)NC(=O)C4CCCCC4)cc3)c2cc1OC", "note": "[Example 1062, N-Cyclohexylcarbonyl-N′-{4-[(6,7-dimethoxy-4-quinolyl)oxy]phenyl}thiourea]", "IC50": 0.233}, {"smiles": "COc1cc2nccc(Oc3ccc(NCCOc4ccccc4Cl)cc3C)c2cc1OC", "note": "[Example 877, N-[2-(2-Chlorophenoxy)ethyl]-N-{4-[(6,7-dimethoxy-4-quinolyl)oxy]-3-methylphenyl}amine]", "IC50": 0.219}, {"smiles": "COc1cc2nccc(Oc3ccc(NC(=S)NC(=O)CCCCl)cc3F)c2cc1OC", "note": "[Example 1068, N-(4-Chlorobutanoyl)-N′-{4-[(6,7-dimethoxy-4-quinolyl)oxy]-3-fluorophenyl}thiourea]", "IC50": 0.124}, {"smiles": "COc1cc2nccc(Oc3ccc(NCCOc4cc(Cl)ccc4Cl)cc3)c2cc1OC", "note": "[Example 865, N-[2-(2,5-Dichlorophenoxy)ethyl]-N-{4-[(6,7-dimethoxy-4-quinolyl)oxy]phenyl}amine]", "IC50": 0.121}, {"smiles": "COc1cc2nccc(Oc3ccc(SCCOc4ccc(F)cc4)cc3)c2cc1OC", "note": "[Example 824, 4-(4-{[2-(4-Fluorophenoxy)ethyl]sulfanyl}phenoxy)-6,7-dimethoxyquinoline]", "IC50": 0.268}, {"smiles": "COc1cc2ncnc(Oc3ccc(SCCOc4ccccc4F)cc3)c2cc1OC", "note": "[Example 849, 4-(4-{[2-(2-Fluorophenoxy)ethyl]sulfanyl}phenoxy)-6,7-dimethoxyquinazoline]", "IC50": 0.76}, {"smiles": "COc1cc2nccc(Oc3ccc(SCCOc4ccc(C(C)C)cc4)cc3)c2cc1OC", "note": "[Example 816, 4-(4-{[2-(4-Isopropylphenoxy)ethyl]sulfanyl}phenoxy)-6,7-dimethoxyquinoline]", "IC50": 0.123}, {"smiles": "COc1cc2nccc(Oc3ccc(NC(=S)NC(=O)c4ccccc4Cl)cc3F)c2cc1OC", "note": "[Example 913, N-(2-Chlorobenzoyl)-N′-{4-[(6,7-dimethoxy-4-quinolyl)oxy]-3-fluorophenyl}thiourea]", "IC50": 0.563}, {"smiles": "COc1cc2nccc(Oc3ccc(NC(=S)NC(=O)c4cc(C)oc4C)cc3F)c2cc1OC", "note": "[Example 1039, N-{4-[(6,7-Dimethoxy-4-quinolyl)oxy]-3-fluorophenyl}-N′-[(2,5-dimethyl-3-furyl)carbonyl]thiourea]", "IC50": 0.556}, {"smiles": "COc1cc2nccc(Oc3ccc(NC(=S)NC(=O)c4cccc(C)c4)cc3F)c2cc1OC", "note": "[Example 941, N-{4-[(6,7-Dimethoxy-4-quinolyl)oxy]-3-fluorophenyl}-N′-(3-methylbenzoyl)thiourea]", "IC50": 0.145}, {"smiles": "COc1ccc(OCCSc2ccc(Oc3ccnc4cc(OC)c(OC)cc34)cc2)cc1", "note": "[Example 813, 6,7-Dimethoxy-4-(4-{[2-(4-methoxyphenoxy)ethyl]sulfanyl}phenoxy)quinoline]", "IC50": 0.402}, {"smiles": "COc1cc2nccc(Oc3ccc(NC(=S)NC(=O)c4cccc(C(F)(F)F)c4)cc3F)c2cc1OC", "note": "[Example 945, N-{4-[(6,7-Dimethoxy-4-quinolyl)oxy]-3-fluorophenyl}-N′-[3-(trifluoromethyl)benzoyl]thiourea]", "IC50": 0.131}]}, {"target": "T1, c-kit", "assay": "Inhibitory activity against c-kit autophosphorylation (MO7e cells, h-SCF)", "type": "cell-based", "conditions": "Mo7e, figure in parentheses in −( ); at 1000 nM", "how_it_was_run": "as §1", "units": {"inhibition at 1 µM": "%"}, "values": [{"smiles": "CCCCCCCCCCCCCC(=O)NC(=S)Nc1ccc(Oc2ccnc3cc(OC)c(OC)cc23)cc1F", "note": "[Example 1076, N-{4-[(6,7-Dimethoxy-4-quinolyl)oxy]-2-fluorophenyl}-N′-tetradecanoylthiourea]", "inhibition at 1 µM": 7}, {"smiles": "COc1cc2ncnc(Oc3ccc(NC(=S)NC(=O)c4ccccc4OC)cc3)c2cc1OC", "note": "[Example 929, N-{4-[(6,7-Dimethoxy-4-quinazolinyl)oxy]phenyl}-N′-(2-methoxybenzoyl)thiourea]", "inhibition at 1 µM": 21}, {"smiles": "COc1cc2nccc(Oc3ccc(NC(=S)NC(=O)c4ccccc4Cl)c(C)c3)c2cc1OC", "note": "[Example 1097, N-(2-Chlorobenzoyl)-N′-{4-[(6,7-dimethoxy-4-quinolyl)oxy]-2-methylphenyl}thiourea]", "inhibition at 1 µM": 8}, {"smiles": "COc1cc2nccc(Oc3ccc(NC(=S)NC(=O)c4c(F)cccc4F)cc3Cl)c2cc1OC", "note": "[Example 1020, N-{3-Chloro-4-[(6,7-dimethoxy-4-quinolyl)oxy]phenyl}-N′-(2,6-difluorobenzoyl)thiourea]", "inhibition at 1 µM": 11}, {"smiles": "CCc1ccc(C(=O)NC(=S)Nc2ccc(Oc3ccnc4cc(OC)c(OC)cc34)cc2F)cc1", "note": "[Example 993, N-{4-[(6,7-Dimethoxy-4-quinolyl)oxy]-2-fluorophenyl}-N′-(4-ethylbenzoyl)thiourea]", "inhibition at 1 µM": 35}, {"smiles": "COc1cc2nccc(Oc3ccc(NC(=S)NC(=O)c4ccc(F)cc4F)cc3Cl)c2cc1OC", "note": "[Example 1208, N-{3-Chloro-4-[(6,7-dimethoxy-4-quinolyl)oxy]phenyl}-N′-(2,4-difluorobenzoyl)thiourea]", "inhibition at 1 µM": 22}, {"smiles": "COc1cc2nccc(Oc3ccc(NC(=S)NC(=O)c4cccc(Cl)c4)c(C)c3C)c2cc1OC", "note": "[Example 1083, N-(3-Chlorobenzoyl)-N′-{4-[(6,7-dimethoxy-4-quinolyl)oxy]-2,3-dimethylphenyl}thiourea]", "inhibition at 1 µM": 30}, {"smiles": "COc1cc2ncnc(Oc3ccc(NC(=S)NC(=O)c4ccc(C)cc4)cc3)c2cc1OC", "note": "[Example 984, N-{4-[(6,7-Dimethoxy-4-quinazolinyl)oxy]phenyl}-N′-(4-methylbenzoyl)thiourea]", "inhibition at 1 µM": 30}]}]}
